Measurements: the CheMixHub viscosity set
± gives the uncertainty stated by the source.

Assay: xn = mol fraction of the nth substance listed
Settings: 101 kPa

OCCCO + CS(C)=O
viscosity [mPa·s]
Settings | 293.15 K | 298.15 K | 303.15 K | 308.15 K | 313.15 K | 318.15 K
x1 = 0.0513 | 2.47 ± 0.03 | 2.13 ± 0.03 | 2.03 ± 0.03 | 1.84 ± 0.03 | 1.7 ± 0.03 | 1.61 ± 0.03
x1 = 0.1024 | 2.88 ± 0.03 | 2.59 ± 0.03 | 2.32 ± 0.03 | 2.09 ± 0.03 | 1.89 ± 0.03 | 1.78 ± 0.03
x1 = 0.1534 | 3.26 ± 0.03 | 2.95 ± 0.03 | 2.63 ± 0.03 | 2.35 ± 0.03 | 2.14 ± 0.03 | 2 ± 0.03
x1 = 0.2043 | 3.74 ± 0.03 | 3.35 ± 0.03 | 2.99 ± 0.03 | 2.67 ± 0.03 | 2.4 ± 0.03 | 2.24 ± 0.03
x1 = 0.255 | 4.29 ± 0.04 | 3.84 ± 0.04 | 3.41 ± 0.03 | 3.02 ± 0.03 | 2.71 ± 0.03 | 2.41 ± 0.03
x1 = 0.3056 | 4.96 ± 0.04 | 4.32 ± 0.04 | 3.8 ± 0.04 | 3.43 ± 0.03 | 3.09 ± 0.03 | –
x1 = 0.356 | 5.73 ± 0.04 | 5.04 ± 0.04 | 4.44 ± 0.04 | 3.87 ± 0.04 | 3.47 ± 0.03 | –
x1 = 0.4064 | 6.64 ± 0.05 | 5.81 ± 0.04 | 5.05 ± 0.04 | 4.42 ± 0.04 | 3.92 ± 0.04 | –
x1 = 0.4566 | 7.69 ± 0.05 | 6.73 ± 0.05 | 5.82 ± 0.04 | 5.05 ± 0.04 | 4.46 ± 0.04 | –
x1 = 0.5066 | 9 ± 0.06 | 7.73 ± 0.05 | 6.65 ± 0.05 | 5.81 ± 0.04 | 5.08 ± 0.04 | –
x1 = 0.5565 | 10.6 ± 0.1 | 9.09 ± 0.06 | 7.76 ± 0.05 | 6.67 ± 0.05 | 5.81 ± 0.04 | –
x1 = 0.6063 | 12.5 ± 0.1 | 10.6 ± 0.1 | 9.02 ± 0.06 | 7.72 ± 0.05 | 6.7 ± 0.05 | –
x1 = 0.6556 | 14.7 ± 0.1 | 12.5 ± 0.1 | 10.6 ± 0.1 | 8.96 ± 0.06 | 7.67 ± 0.05 | –
x1 = 0.7055 | 17.6 ± 0.1 | 14.8 ± 0.1 | 12.4 ± 0.1 | 10.4 ± 0.1 | 8.88 ± 0.06 | –
x1 = 0.7549 | 21 ± 0.1 | 17.6 ± 0.1 | 14.6 ± 0.1 | 12.2 ± 0.1 | 10.3 ± 0.1 | –
x1 = 0.8042 | 25.2 ± 0.2 | 21 ± 0.1 | 17.3 ± 0.1 | 14.3 ± 0.1 | 12 ± 0.1 | –
x1 = 0.8533 | 30.4 ± 0.2 | 25 ± 0.2 | 20.5 ± 0.1 | 16.8 ± 0.1 | 14 ± 0.1 | –
x1 = 0.9024 | 36.5 ± 0.2 | 29.8 ± 0.2 | 24.2 ± 0.2 | 19.7 ± 0.1 | 16.4 ± 0.1 | –
x1 = 0.9512 | 43.8 ± 0.3 | 35.5 ± 0.2 | 28.5 ± 0.2 | 23.1 ± 0.2 | 19 ± 0.1 | –
